In patent publication US20050159345A1 (Boehringer Ingelheim International GmbH, priority 2002, published 2005):

Assays:
HCV replicon 1a = assay: Cell-based HCV 1a RNA replicon assay; details: Hepatitis C virus, 72 h; Huh-7-derived replicon cells, 3 day incubation, HCV RNA by RT-PCR
Protocol: (§1) These cells were used to establish a sensitive HCV RNA replication cell-based assay for testing candidate test compounds.
(§2) Huh7 cells that stably maintain a subgenomic HCV replicon were established as previously described (Lohman et al. 1999; WO 02/052015). The cells were seeded into a 96 well cell culture cluster at 1×10^4 cells per well in DMEM complemented with 10% FBS, PenStrep (Life Technologies) and […] Geneticin. Cells were incubated in a 5% CO2 incubator at 37° C. until addition of various concentrations of the test compound.
(§3) The test compound was prepared for use in the assay as follows. The test compound in 100% DMSO was added diluted in assay Medium for a final DMSO concentration of 0.5% and the solution was sonicated for 15 min and filtered through a […] Millipore Filter Unit. Serial dilutions of the test compounds were prepared using Assay Medium (containing 0.5% DMSO).
(§4) Cell culture medium was aspirated from the 96-well plate containing the cells and the appropriate dilution of test compound in assay medium was transferred to independent wells of the cell culture plate which was incubated at 37° with 5% CO2.
(§5) Following a 3 day-incubation period, the cells were washed with PBS and total cellular RNA was extracted with the RNeasy Mini Kit® and Qiashredder® from Qiagen. RNA from each well was eluted in 50 μL of H2O. RNA was quantified by optical density at 260 nm on the Cary 1E® UV-Visible spectrophotometer. The HCV RNA replicon copy number was evaluated by real-time RT-PCR with the Abi Prism® 7700 Sequence Detection System. The TAQMAN E® RT-PCR kit provides a system for the detection and analysis of RNA. Direct detection of the reverse transcription polymerase chain reaction (RT-PCR) product with no downstream processing was accomplished by monitoring the increase in fluorescence of a dye-labeled DNA probe. The nucleotide sequence of both primers and probe was located in the 5′ region of the HCV genome. The replicon copy number was then evaluated using a standard curve made with known amounts of replicon copy (supplemented with 50 ng of wild type Huh-7 RNA) assayed in the same reaction mix. The following thermal cycle parameters were used for the RT-PCR reaction on the ABI Prism® 7700 Sequence Detection System. Conditions were optimized for HCV detection. Quantification is based on the threshold cycle, where the amplification plot crosses a defined fluorescence threshold. Comparison of the threshold cycles provides a highly sensitive measure of relative template concentration in different samples. Monitoring during early cycles, when PCR fidelity is at its highest, provides precise data for accurate quantification. The relative template concentration can be converted to real numbers by using the standard curve of HCV with known number of copy.
(§6) The level of inhibition (% inhibition) of each well containing test compound was calculated with the following equation (CN═HCV Replicon copy number): [formula]
(§7) The calculated % inhibition values were then used to determine EC50, slope factor (n) and maximum inhibition (Imax) by the non-linear regression routine NLIN procedure of SAS using the following equation: [formula]

HCV replicon 1b = assay: Cell-based HCV 1b RNA replicon assay; details: Hepatitis C virus, 72 h; Huh-7-derived replicon cells, 3 day incubation, HCV RNA by RT-PCR
Protocol: as §1, §2, §3, §4, §5, §6, §7

[1] = molecular target: T1, HCV genotype 1b NS3-NS4A protease (UniProt P26662); assay: Inhibition constant (Ki) determination and mode of inhibition, steady-state velocity, genotype 1b; type: biochemical
T1 construct: fused on or other part: 28 extra N-terminal residues with a hexahistidine tag and an rTEV cleavage site
Protocol: (§8) The fluorogenic depsipeptide substrate anthranilyl-D(d)EIVP-Nva[C(O)—O] AMY(3-N2)TW—OH (SEQ ID No.13) was used to assess the mechanism of inhibition and the inhibition constants of the compound (IV) against HCV NS3-NS4A proteases. It was cleaved between the norvaline and the alanine residues. The substrate working solution was prepared in DMSO at the concentration of 200 μM from the substrate stock solution (2 mM in DMSO stored at —20° C.). The final substrate concentration in the assay varied from 0.25 to 8 μM. The inhibition constant (Ki) for compound (IV) was determined using a steady-state velocity method (Morrisson et al. 1985). The protease activity was determined by monitoring the fluorescence change associated with the cleavage of the internally quenched fluorogenic substrate using a SLM-AMINCO® 8100 spectrofluorometer ([…]). The cleavage reaction was monitored in the presence of 0.25 to 8 μM of substrate, 0.3 nM of HCV 1a or 1b NS3-NS4A heterodimer protein and various concentrations of the test compound IV in 50 mM Tris-HCl, pH 8.0, 0.25M sodium citrate, 0.01% n-dodecyl-β-D-maltoside, 1 mM TCEP. The steady-state analysis of inhibition of the HCV genotype 1a and 1b NS3-NS4A heterodimer proteases were performed using the Dixon and Cornish-Bowden graphical methods. […]

[2] = molecular target: T2, HCV genotype 1a NS3-NS4A protease (Hepatitis C virus genotype 1a, UniProt P27958); assay: Inhibition constant (Ki) determination and mode of inhibition, steady-state velocity, genotype 1a; type: biochemical
T2 construct: Co-purification of mature NS3 and NS4A protein complex was verified by Western blot analysis; made in house; host or cells: Sf21 insect cells, recombinant baculovirus (pFastBac HTa)
Protocol: as §8

[3] = tested on: HCV replicon-containing, Huh-7-derived cell lines; details: human
GBV-B = assay: Inhibition of GBV-B replication in tamarin hepatocytes in culture; type: cell-based
Protocol: Hepatocytes isolated from uninfected tamarins were maintained in culture in defined medium for several days. The cell culture model was as described by Beames et al. 2000. Three days after plating, the cells were infected with GBV-B-containing plasma. After viral adsorption, the virus was removed and the cells were incubated in the presence and absence of candidate test compounds at a concentration of 10 μM. The cells were harvested 7 days post infection. The levels of GBV-B RNA were quantitated from total cellular RNA by a real-time PCR assay using a primer-probe combination that recognized a portion of the GBV-B capsid gene (Beames et al. 2000).

[4] = Dixon and Cornish-Bowden plots, GraFit

T1 sequence (P26662 1027-1657): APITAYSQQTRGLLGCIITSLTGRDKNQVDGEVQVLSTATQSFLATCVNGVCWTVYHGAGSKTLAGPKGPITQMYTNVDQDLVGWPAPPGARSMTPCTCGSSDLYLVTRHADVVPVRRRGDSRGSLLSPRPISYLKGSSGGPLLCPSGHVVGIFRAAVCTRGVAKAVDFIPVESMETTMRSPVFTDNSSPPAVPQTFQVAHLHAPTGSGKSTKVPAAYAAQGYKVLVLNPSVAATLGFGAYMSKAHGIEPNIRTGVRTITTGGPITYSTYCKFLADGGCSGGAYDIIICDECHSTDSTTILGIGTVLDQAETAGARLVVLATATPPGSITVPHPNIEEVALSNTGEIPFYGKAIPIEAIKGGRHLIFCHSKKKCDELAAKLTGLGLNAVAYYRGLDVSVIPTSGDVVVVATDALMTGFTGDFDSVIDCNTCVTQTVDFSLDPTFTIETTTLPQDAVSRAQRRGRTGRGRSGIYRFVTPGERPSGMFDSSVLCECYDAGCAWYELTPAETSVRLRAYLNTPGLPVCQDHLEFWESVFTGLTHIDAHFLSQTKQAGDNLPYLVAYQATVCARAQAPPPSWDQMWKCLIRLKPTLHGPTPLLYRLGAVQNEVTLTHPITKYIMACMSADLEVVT
T2 sequence (P27958 1027-1657): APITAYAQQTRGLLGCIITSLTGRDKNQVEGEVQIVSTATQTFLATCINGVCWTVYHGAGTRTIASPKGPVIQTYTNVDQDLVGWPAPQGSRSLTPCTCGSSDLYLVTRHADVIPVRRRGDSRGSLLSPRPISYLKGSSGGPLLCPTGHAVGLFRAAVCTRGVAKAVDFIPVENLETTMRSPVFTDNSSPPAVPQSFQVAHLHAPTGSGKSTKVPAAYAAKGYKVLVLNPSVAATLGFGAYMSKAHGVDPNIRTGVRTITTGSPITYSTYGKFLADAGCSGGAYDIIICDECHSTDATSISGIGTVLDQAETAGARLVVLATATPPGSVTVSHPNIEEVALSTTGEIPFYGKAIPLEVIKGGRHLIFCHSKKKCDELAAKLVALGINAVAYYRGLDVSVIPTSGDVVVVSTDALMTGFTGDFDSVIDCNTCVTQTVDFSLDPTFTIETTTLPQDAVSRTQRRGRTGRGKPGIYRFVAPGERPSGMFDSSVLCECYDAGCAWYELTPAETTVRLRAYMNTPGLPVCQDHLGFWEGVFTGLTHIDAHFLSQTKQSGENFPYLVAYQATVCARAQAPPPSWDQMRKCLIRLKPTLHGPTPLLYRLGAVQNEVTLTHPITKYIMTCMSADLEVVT
T2 sequence (P27958 1658-1711): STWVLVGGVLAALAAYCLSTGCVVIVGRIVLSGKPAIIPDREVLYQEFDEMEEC

Compound | EC50 (HCV replicon 1a) [nM] | EC50 (HCV replicon 1b) [nM] | mode of inhibition, HCV genotype 1b NS3-NS4A protease [1, 4] | Ki ([1]; read-out: Ki HCV genotype 1b NS3-NS4A protease, steady-state velocity analysis) [nM] | Ki [2] [nM] | mode of inhibition, HCV genotype 1a NS3-NS4A protease [2, 4] | Cytotoxicity (concentration at which not observed) [3] | inhibition of GBV-B replication (FIG. 7) (GBV-B) | reduction in the viral RNA levels (GBV-B; 10 μM, 7 days post infection, g.e./μg RNA) [log]
COc1ccc2c(O[C@@H]3C[C@H]4C(=O)N[C@]5(C(=O)O)CC5/C=C\CCCCC[C@H](NC(=O)OC(C)(C)C)C(=O)N4C3)cc(-c3ccccc3)nc2c1 (stereo partly shown) [II] | 34 | 27 | – | – | – | – | – | – | –
COc1ccc2c(O[C@@H]3C[C@H]4C(=O)N[C@]5(C(=O)O)CC5/C=C\CCCCC[C@H](NC(=O)OC5CCCC5)C(=O)N4C3)cc(-c3csc(NC(C)C)n3)nc2c1 (stereo partly shown) [IV] | 2.1 | 1 | competitive | 0.66 | 0.3 | competitive | higher than 1000 nM | – | –
COc1ccc2c(O[C@@H]3C[C@H]4C(=O)N[C@]5(C(=O)O)CC5/C=C\CCCCC[C@H](NC(=O)OC(C)(C)C)C(=O)N4C3)cc(-c3csc(NC(C)=O)n3)nc2c1 (stereo partly shown) [III] | 4.5 | 4.7 | – | – | – | – | – | dose-dependent inhibition | > 3
